According to patent publication EP4585599A1, “NITROGEN-CONTAINING FUSED RING COMPOUND, INTERMEDIATE THEREOF, PREPARATION METHOD THEREFOR AND USE THEREOF” (Hangzhou Synrx Therapeutics Biomedical Technology Co., Ltd., priority 2022, dated 2024):
pIC50: −log10 of the molar value. Like-named read-outs stand apart in the source and are kept apart here.

Assays:
[1] = target: T1, helicase domain of the Pol θ protein (Homo sapiens, UniProt O75417); assay: Biochemical Activity Assay (ADP Glo Assay) of Pol θ inhibitor, ATPase activity; details: ssDNA substrate, read-out: Biochemical assay IC50
T1 construct: The helicase domain of the Pol θ protein was purified from insect protein expression system; made in house; host or cells: insect protein expression system
T1 sequence (O75417 102-554 limits assumed): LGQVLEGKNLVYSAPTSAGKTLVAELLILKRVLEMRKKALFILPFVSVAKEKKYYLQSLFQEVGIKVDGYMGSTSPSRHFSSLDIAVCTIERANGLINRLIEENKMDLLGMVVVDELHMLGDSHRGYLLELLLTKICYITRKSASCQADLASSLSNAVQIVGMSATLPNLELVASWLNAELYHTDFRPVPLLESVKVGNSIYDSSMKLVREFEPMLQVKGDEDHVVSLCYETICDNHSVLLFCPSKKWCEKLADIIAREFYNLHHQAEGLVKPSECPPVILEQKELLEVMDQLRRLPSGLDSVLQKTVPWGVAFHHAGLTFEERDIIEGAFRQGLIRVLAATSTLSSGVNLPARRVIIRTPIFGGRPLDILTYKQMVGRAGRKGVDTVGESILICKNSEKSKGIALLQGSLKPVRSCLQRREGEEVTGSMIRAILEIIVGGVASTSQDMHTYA

cells = details: Homo sapiens, DLD-1, 240 h
[2] = ADP-Glo assay, ATPase activity of Pol θ helicase domain
[3] = ADP-Glo, 60 min at room temperature
[4] = read-out: Cell viability assay IC50 (nM), CTG assay, CellTiter Glo, read on Day 10, cell line not given
[5] = read-out: Cell viability assay IC50 (nM), CTG on Day 10, cell line not given (method: DLD1 and DLD1^-/- cells)

SMILES | pIC50 [1, 2] | pIC50 [1, 3] | IC50 (cells; [4]) [nM] | IC50 (cells; [5]) [nM] | IC50 (cells; read-out: Cell viability assay IC50 (nM)) [nM]
COc1cnc(Cl)cc1-c1cc(C)ncc1C(=O)Nc1nc2ncc(C3=CCC(NC(C)=O)CC3)cc2s1 (centres unmarked) [Example 23] | 8.55 | > 7.30 | 15.3 | < 100 | –
COc1cnc(Cl)cc1-c1cc(C)ncc1C(=O)Nc1nc2ccc(-c3ccn(C)n3)nc2s1 [Example 24] | 7.82 | > 7.30 | 192 | 100 to 500 | –
COc1cnc(Cl)cc1-c1cc(C)ncc1C(=O)Nc1nc2ncc(-n3ccccc3=O)cc2s1 [Example 25] | 8.40 | > 7.30 | 138 | 100 to 500 | –
COc1cnc(Cl)cc1-c1cc(C)ncc1C(=O)Nc1nc2ccc([C@H]3CC[C@H](O)CC3)nc2s1 [Example 29] | 7.89 | > 7.30 | 131 | 100 to 500 | –
COc1cnc(Cl)c(F)c1-c1cc(C)ncc1C(=O)Nc1nc2ccc(C3CCC(O)CC3)cc2s1 (centres unmarked) [Example 30] | 8.79 | > 7.30 | 19.2 | < 100 | –
COc1cccc(F)c1-c1cc(C)ncc1C(=O)Nc1nc2ccc([C@H]3CC[C@@H](O)CC3)nc2s1 [Example 31] | 7.18 | 6.70 to 7.30 | – | – | > 1000
COc1cccc(F)c1-c1cc(C)ncc1C(=O)Nc1nc2ccc([C@H]3CC[C@H](O)CC3)nc2s1 [Example 32] | 6.71 | 6.70 to 7.30 | 7080 | > 1000 | –
COc1cnc(Cl)cc1-c1cnccc1C(=O)Nc1nc2ccc([C@H]3CC[C@H](O)CC3)nc2s1 [Example 34] | 7.31 | > 7.30 | 2000 | > 1000 | –
COc1cnc(Cl)cc1-c1cc(C)ncc1C(=O)Nc1nc2cc(C3CCC(O)CC3)cnc2s1 (centres unmarked) [Example 35] | 6.60 | 6.30 to 6.70 | 3290 | > 1000 | –
COc1cnc(Cl)cc1-c1cc(C)ncc1C(=O)Nc1nc2ccc(C3CCN(C)CC3)nc2s1 [Example 36] | 6.63 | 6.30 to 6.70 | 584 | 500 to 1000 | –
COc1cnc(Cl)cc1-c1cc(C)ncc1C(=O)Nc1nc2ncc(C3CCOCC3)cc2s1 [Example 37] | 8.36 | > 7.30 | 44.7 | < 100 | –
COc1cnc(Cl)cc1-c1cc(C)ncc1C(=O)Nc1nc2ccc(N3CCC(O)C3)nc2s1 (centres unmarked) [Example 47] | 7.28 | 6.70 to 7.30 | 631 | 500 to 1000 | –
COc1cnc(Cl)cc1-c1cc(C)ncc1C(=O)Nc1nc2ccc(N3CCC(C)(O)CC3)cc2s1 [Example 48] | 7.58 | > 7.30 | 165 | 100 to 500 | –
COc1cnc(Cl)c(F)c1-c1cc(C)ncc1C(=O)Nc1nc2ncc(N3CCOCC3)cc2s1 [Example 49] | 8.12 | > 7.30 | 54.1 | < 100 | –
COc1cnc(Cl)cc1-c1cc(C)ncc1C(=O)Nc1nc2ncc(N3CCS(=O)(=O)CC3)cc2s1 [Example 50] | 8.08 | > 7.30 | 541 | 500 to 1000 | –
COc1cnc(Cl)cc1-c1cc(C)ncc1C(=O)Nc1nc2cnc(N3CCC(O)CC3)cc2s1 [Example 51] | 8.02 | > 7.30 | 85.8 | < 100 | –
COc1cnc(Cl)cc1-c1cc(C)ncc1C(=O)Nc1nc2cnc(N3CCC(O)CC3)nc2s1 [Example 52] | 8.58 | > 7.30 | 20.7 | < 100 | –
COc1cnc(Cl)c(F)c1-c1cc(C)ncc1C(=O)Nc1nc2ccc(N3CCC(O)CC3)nc2s1 [Example 53] | 8.71 | > 7.30 | 9.38 | < 100 | –
COc1cnc(Cl)cc1-c1cc(C)ncc1C(=O)Nc1nc2ccc(C3=CCC(O)CC3)nc2[nH]1 (centres unmarked) [Example 56, 2'-chloro-N-(5-(4-hydroxycyclohex-1-en-1-yl)-3H-imidazo[4,5-b]pyridin-2-yl)-5'-methox y-6-methyl-[4,4'-bipyridine]-3-carboxamide] | 6.65 | 6.30 to 6.70 | 9620 | > 1000 | –
COc1cnc(Cl)cc1-c1cc(C)ncc1C(=O)Nc1nc2ncc(N3CCC(NC(C)=O)CC3)cc2s1 [Example 57, N-(6-(4-acetaminopiperidin-1-yl)thiazolo[4,5-b]pyridin-2-yl)-2'-chloro-5'-methoxy-6-me thyl-[4,4'-bipyridine]-3-carboxamide] | 8.60 | > 7.30 | 126 | 100 to 500 | –
COc1cnc(Cl)cc1-c1cc(C)ncc1C(=O)Nc1nc2ncc(N3CCC(N)CC3)cc2s1 [Example 58] | 7.96 | > 7.30 | 3420 | > 1000 | –
